Marks after values point to notes of the source that are not given here.
Key:
soybean seeds = experiment: Root & shoot growth analysis after seed soak, soy; type: in vivo; settings: for Root (root growth index, percentage increase over untreated control) / Shoot (shoot length, percentage increase over untreated control): soy, 12-14 days
Experimental: (§1) Peptides were tested for biological effects on the allocation of growth resources to the shoot (above ground) and root (below ground). Peptides were dissolved at 0.2, 2, or 5 μg/ml in a total volume of 100 ml deionized water. Corn or soybean seeds were then soaked for one hour in the peptide solution. Untreated control (UTC) plants were soaked in deionized water. Clear plastic 300 ml beverage cups (Solo®, Dart Container Corporation) were prepared for planting by marking the bottom with a cross, dividing the bottom into four equal quadrants. The cups were then filled with Sunshine Mix #1 soil (SunGro Horticulture) sieved to ¼″. 100 ml of water was added to the soil. Treated seeds were then planted by pressing the seed lightly into the top of the soil. The seeds were then covered with an additional 50 ml of loose soil. Seeds were allowed to germinate and grow for 12-14 days.
The length of the shoot was measured as the distance from the soil to the lightly stretched tip of the highest leaf for each plant. […] Stunting was defined as lacking a fully expanded true leaf at time of data collection or having an expanded true leaf judged by eye to be <½ the average leaf area of the treatment group. Generally, 30 seeds were planted per treatment group and 15-25 plants were used for data collection.
(§2) Root growth was estimated by counting the number of times that a primary root crosses the quadrant marks on the bottom of the cup. These were often observed along the bottom circumference of the cup, although some were visible along the side of the container and were counted as if crossing a vertical extension of the quadrant line. This number was divided by 4 to produce a root growth index.
Each number indicates the percentage increase over the untreated control values.

Soy plants = experiment: Growth tests after foliar spray, soy; type: in vivo
Experimental: (§3) Soy seeds (or corn seeds, as indicated) were planted in flats with 2 seeds per cell within the flat at a greenhouse facility. The seeds were allowed to germinate and the smaller plant is culled, leaving one plant per cell. Once the first true leaves are fully expanded and the second leaves are beginning to expand, the plants were initially measured for height. This was performed by stretching the highest leaf upward and measuring the distance to the soil. Peptides were dissolved in water at the indicated concentrations (Table 21 below). The plants were then treated with a foliar spray using widely available spray bottles until liquid was dripping from the leaves. Six flats of 14 plants each were treated per condition (peptide or control). Designated untreated control plants were sprayed with water. The plants were allowed to grow for 14 days. The height of the plants was again measured and compared to the original height to quantify growth. Finally, the plants were harvested by removing the shoots (all above-ground material). For some experiments, this was weighed upon harvesting to determine the fresh mass (including water weight). The shoots were then dried at 70° C. for 72 hours, and again weighed to determine dry biomass. Although this method uses a similar measure (growth) as in Example 3 above, the treatment method is different (seed soak vs. foliar spray). As a result, the experimental outcomes may diverge.

Corn seeds = experiment: Root & shoot growth analysis after seed soak, corn; type: in vivo; settings: seed soak 0.2 μg/ml, 12-14 days
Experimental: as §1
The length of the shoot was measured as the distance from the soil to the lightly stretched tip of the highest leaf for each plant. […]
as §2, with “This number was divided by 4 to produce a root growth index.” left out

[1] = test system: tobacco mosaic virus (TMV); experiment: Induction of resistance to tobacco mosaic virus in tobacco; type: in vivo; settings: for Effectiveness Covered (%) (decline in TMV lesions vs UTC, systemic response) / Effectiveness Uncovered (%) (decline in TMV lesions vs UTC, local response): TMV 3 days post-treatment, scored 3 days after inoculation
corn plants = experiment: Growth tests after foliar spray, corn; type: in vivo
Experimental: as §3

[2] = test system: soy plants (leaf tissue discs); experiment: Peroxide response, ferric-xylenol orange assay on soy leaf discs; type: cell-based; settings: 0.5 ug/ml peptide, one hour, absorbance at 595 nm vs blank
Experimental: The ferric-xylenol orange complex assay for hydrogen peroxide (Gay et al., Analytical Biochemistry 273:149-55 (1999), which is hereby incorporated by reference in its entirety) was used to determine peroxide production by plant leaf tissue. Briefly, reagent A was prepared by mixing 10 mg of ferrous ammonium sulfate with 133 uL of sulfuric acid in a total volume of 1 mL with water. Reagent B was prepared by mixing 2 g of sorbitol with 9.34 mg of xylenol orange in 80 ml of water. 1M hydrochloric acid was slowly added until the solution turned yellow. The solution was then diluted with water to a total volume of 100 mL, and stored in a dark bottle at 4° C.
Leaves from either tobacco plants (plants grown to 6 true leaves) or soy plants (plants grown to 6 true leaves) were used for the assay. The leaf was first removed from the plant and placed on a paper towel. 0.5 cm leaf tissue circles were then removed from the leaf using a leather punch tool. These discs were then placed into the wells of a 96-well plate. […] of water was added to each disc. The plate was covered with parafilm and rested for 12 hours in the dark. The excess water was then removed and the wells washed with an additional 250 uL of water. The washes were then removed from the wells and replaced with 105 uL of a 0.5 ug/ml solution of peptide in water or water blank, generally in quadruplicate. Where peptide solubility was a problem, pH buffer was added to both the blank and peptide samples. Leaf discs were incubated with the peptides for one hour under fluorescent lighting. 50 ul of the solution from each leaf sample was removed to a new well for chemical analysis.
Just prior to analysis, reagents A and B were freshly mixed in a 1:100 ratio to produce the assay reagent. 200 ul of this mixture was added to each well containing 50 ul of leaf-treated solution. The plate was incubated in the dark for 20 minutes and the absorbance at 595 nm was detected. Results were analyzed using a two-tailed Student's T-test. The results were divided into several response classes. XR++ indicated a positive response with absorbance >0.05 units above the negative control and a Student's T-test p<0.05. XR+ indicated an absorbance <0.05 units above the blank and a Student's T-test p<0.05. XR weak indicated a response >0.02 units above the negative control with a p-value that was not significant. XR− indicated an absorbance within 0.02 units of the negative control. It should be noted that there can be significant biological variability in the peroxide response due to plant age, location of the disc within the leaf, and other factors. As a result, p-values from the T-test are a guide and not an absolute inclusion criterion.

[3] = soy, foliar spray 2.0 ug/ml, 14 days
[4] = foliar spray 2.0 ug/ml, 14 days

## SQGISEKQADQLLSQLIQALLQP (P4-14S-9A)
Soybean seeds; seed soak, p14a soy at 0.2 μg/ml
  shoot growth (Table 20): increased shoot growth
Soybean seeds; seed soak 2.0 μg/ml
  Root (root growth index, percentage increase over untreated control): 4.3%
  Shoot (shoot length, percentage increase over untreated control): 5.0%
Soybean seeds; seed soak 5.0 μg/ml
  Root (root growth index, percentage increase over untreated control): 2.5%
  Shoot (shoot length, percentage increase over untreated control): 6.5%*
Soy plants; foliar spray
  growth, dry biomass and fresh mass (text summary of Table 21): increases in growth and dry biomass
Soy plants; [3]
  Dry biomass increase (%): 10.8%
  Growth increase (%): 11.9%
Corn seeds
  Root (root growth index, percentage increase over untreated control): 4.8%
  Shoot (shoot length, percentage increase over untreated control): 3.9%*
[1]; foliar spray
  TMV response / effectiveness against TMV infection (summary of Table 22): produced the best results
[1]; spray 5.0 ug/ml
  Effectiveness Covered (%) (decline in TMV lesions vs UTC, systemic response): 86* %
  Effectiveness Uncovered (%) (decline in TMV lesions vs UTC, local response): 84* %

## NQGISEKQLDQLLTQLI (P1-29)
Corn plants; foliar spray
  growth benefit in corn: modest growth benefit
Corn plants; [4]
  Dry biomass increase (%): 5.7%
  Fresh mass increase (%): 5.1%
  Growth increase (%): 7.8%
[1]; spray 10 ug/ml
  Effectiveness Covered (%) (decline in TMV lesions vs UTC, systemic response): 18%
  Effectiveness Uncovered (%) (decline in TMV lesions vs UTC, local response): 44%

## QAGPQSANKTGNVDDANNQDPLQALLQLLEDLV (P14-22L,26L)
[2]
  Peroxide Response, Soy: Weak+
[1]; spray 20 ug/ml
  Effectiveness Covered (%) (decline in TMV lesions vs UTC, systemic response): 67* %
  Effectiveness Uncovered (%) (decline in TMV lesions vs UTC, local response): 65* %

## QAGPQSANKTGNVDDANNQDPAQALEQLLEDLV (P14-22A,26E)
[2]
  Peroxide Response, Soy: Weak+
[1]; spray 20 ug/ml
  Effectiveness Covered (%) (decline in TMV lesions vs UTC, systemic response): 85* %
  Effectiveness Uncovered (%) (decline in TMV lesions vs UTC, local response): 91* %

## SQGISEKQDDQLLSQLIQALLQP (P4-14S-9D)
[2]
  Peroxide Response, Soy: Weak+
[1]; spray 10 ug/ml
  Effectiveness Covered (%) (decline in TMV lesions vs UTC, systemic response): 52%
  Effectiveness Uncovered (%) (decline in TMV lesions vs UTC, local response): 89%

## QAGPQSANKTGNVDDANNQDPLQALLQAAEDLV (P14-22L,28-29A)
[2]
  Peroxide Response, Soy: Weak+
[1]; spray 10 ug/ml
  Effectiveness Covered (%) (decline in TMV lesions vs UTC, systemic response): 84* %
  Effectiveness Uncovered (%) (decline in TMV lesions vs UTC, local response): 83* %

— US10524472B2, “Elicitor peptides having disrupted hypersensitive response box and use thereof” (Plant Health Care, Inc., priority 2014, dated 2020)
